# Source: patent publication US10689398B2, “OXA-Diazaspiro compounds having activity against pain” (ESTEVE PHARMACEUTICALS, S.A., priority 2015, dated 2020)
# pKi: −log10 of the molar value.
# Molecular target: human σ1 receptor (Homo sapiens (Human), UniProt Q99720)
# Assay: Human σ1 receptor radioligand assay
# Type: binding
# Settings: transfected HEK-293 membranes, [3H](+)-pentazocine radioligand
# Method: Human σ1 Receptor Radioligand Assay
# To investigate binding properties of test compounds to human σ1 receptor, transfected HEK-293 membranes and [^3H](+)-pentazocine (Perkin Elmer, NET-1056), as the radioligand, were used. The assay was carried out with 7 μg of membrane suspension, 5 nM of [^3H](+)-pentazocine in either absence or presence of either buffer or 10 μM Haloperidol for total and non-specific binding, respectively. Binding buffer contained Tris-HCl 50 mM at pH 8. Plates were incubated at 37° C. for 120 minutes. After the incubation period, the reaction mix was then transferred to MultiScreen HTS, FC plates (Millipore), filtered and plates were washed 3 times with ice-cold 10 mM Tris-HCL (pH7.4). Filters were dried and counted at approximately 40% efficiency in a MicroBeta scintillation counter (Perkin-Elmer) using EcoScint liquid scintillation cocktail
# human σ1 receptor, sequence (Q99720 whole entry): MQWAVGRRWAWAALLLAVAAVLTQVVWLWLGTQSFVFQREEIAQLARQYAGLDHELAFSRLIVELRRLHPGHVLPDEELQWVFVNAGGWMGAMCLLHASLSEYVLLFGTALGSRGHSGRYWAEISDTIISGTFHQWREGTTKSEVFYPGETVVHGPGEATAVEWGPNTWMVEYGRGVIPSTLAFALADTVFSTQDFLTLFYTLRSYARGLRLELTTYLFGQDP
row,Compound,pKi
1,"CCN1CC2(CCCN(CCC(C)C)C2)OC2(CC2)C1=O (stereo not drawn) [Example 1, 12-Ethyl-7-isopentyl-4-oxa-7,12-diazadispiro[2.1.5.3]tridecan-13-one]",≤ 6.30
2,"CCN1CC2(CCCN(CCc3ccccc3)C2)OC2(CC2)C1=O (stereo not drawn) [Example 2, 12-Ethyl-7-phenethyl-4-oxa-7,12-diazadispiro[2.1.5.3]tridecan-13-one]",≤ 6.30
3,"CCN1CC2(CCCN(CCc3ccccc3)CC2)OC2(CC2)C1=O (stereo not drawn) [Example 3, 13-ethyl-8-phenethyl-4-oxa-8,13-diazadispiro[2.1.6.3]tetradecan-14-one]",> 7.00
4,"CCN1CC2(CCCN(CCC(C)C)CC2)OC2(CC2)C1=O (stereo not drawn) [Example 4, 13-ethyl-8-isopentyl-4-oxa-8,13-diazadispiro[2.1.6.3]tetradecan-14-one]",> 7.00
5,CCN1CC2(CN(CCc3ccccc3)C2)OC2(CC2)C1=O [Example 5],> 6.30
6,"CCN1CC2(CN(CCC(C)C)C2)OC2(CC2)C1=O [Example 6, 10-ethyl-7-isopentyl-4-oxa-7,10-diazadispiro[2.1.3.3]undecan-11-one]",> 7.00
7,"O=C1N(c2ccccc2)CC2(CCCN(CCc3ccccc3)C2)OC12CC2 (stereo not drawn) [Example 7, 7-phenethyl-12-phenyl-4-oxa-7,12-diazadispiro[2.1.5.3]tridecan-13-one]",> 6.30
8,"CC(C)CCN1CCCC2(C1)CN(c1ccccc1)C(=O)C1(CC1)O2 (stereo not drawn) [Example 8, 7-isopentyl-12-phenyl-4-oxa-7,12-diazadispiro[2.1.5.3]tridecan-13-one]",> 6.30
9,"O=C1N(c2ccccc2)CC2(CCCN(CCc3ccccc3)CC2)OC12CC2 (stereo not drawn) [Example 9, 8-phenethyl-13-phenyl-4-oxa-8,13-diazadispiro[2.1.6.3]tetradecan-14-one]",> 7.00
10,"CC(C)CCN1CCCC2(CC1)CN(c1ccccc1)C(=O)C1(CC1)O2 (stereo not drawn) [Example 10, 8-isopentyl-13-phenyl-4-oxa-8,13-diazadispiro[2.1.6.3]tetradecan-14-one]",> 7.00
11,"CCN1CC2(CCCN(Cc3ccccc3)C2)OC2(CC2)C1=O (stereo not drawn) [Example 11, 7-Benzyl-12-ethyl-4-oxa-7,12-diazadispiro[2.1.5.3]tridecan-13-one]",≤ 6.30
12,"CCN1CC2(CCCN(Cc3ccccc3)CC2)OC2(CC2)C1=O (stereo not drawn) [Example 12, 8-benzyl-13-ethyl-4-oxa-8,13-diazadispiro[2.1.6.3]tetradecan-14-one]",> 7.00
13,"CCN1CC2(CN(Cc3ccccc3)C2)OC2(CC2)C1=O [Example 13, 7-benzyl-10-ethyl-4-oxa-7,10-diazadispiro[2.1.3.3]undecan-11-one]",≤ 6.30
14,"O=C1N(c2ccccc2)CC2(CCCN(Cc3ccccc3)CC2)OC12CC2 (stereo not drawn) [Example 14, 8-benzyl-13-phenyl-4-oxa-8,13-diazadispiro[2.1.6.3]tetradecan-14-one]",> 7.00
15,"O=C1N(c2ccccc2)CC2(CCCN(Cc3ccccc3)C2)OC12CC2 (stereo not drawn) [Example 15, 7-benzyl-12-phenyl-4-oxa-7,12-diazadispiro[2.1.5.3]tridecan-13-one]",≤ 6.30
16,"CCN1CC2(CCCN(CCc3ccccc3)CC2)OC2(CC2)C1 (stereo not drawn) [Example 16, 13-Ethyl-8-phenethyl-4-oxa-8,13-diazadispiro[2.1.6.3]tetradecane]",> 7.00
17,"CCN1CC2(CC2)OC2(CCCN(Cc3ccccc3)C2)C1 (stereo not drawn) [Example 17, 7-benzyl-12-ethyl-4-oxa-7,12-diazadispiro[2.1.5.3]tridecane]",≤ 6.30
18,CCN1CC2(CC2)OC2(CCCN(CCc3ccccc3)C2)C1 (stereo not drawn) [Example 18],≤ 6.30
19,"c1ccc(CCN2CCCC3(C2)CN(c2ccccc2)CC2(CC2)O3)cc1 (stereo not drawn) [Example 19, 7-phenethyl-12-phenyl-4-oxa-7,12-diazadispiro[2.1.5.3]tridecane]",> 7.00
20,"CC(C)CCN1CCCC2(C1)CN(c1ccccc1)CC1(CC1)O2 (stereo not drawn) [Example 20, 7-isopentyl-12-phenyl-4-oxa-7,12-diazadispiro[2.1.5.3]tridecane]",> 7.00
21,"c1ccc(CN2CCCC3(CC2)CN(c2ccccc2)CC2(CC2)O3)cc1 (stereo not drawn) [Example 21, 8-benzyl-13-phenyl-4-oxa-8,13-diazadispiro[2.1.6.3]tetradecane]",> 7.00
